# Data taken from patent US20210400967A1, “COMPOSITIONS COMPRISING PYRIDINE CARBOXYLATE HERBICIDES WITH GLYPHOSATE OR GLUFOSINATE” (Corteva Agriscience LLC, priority 2018, published 2021).
# Key:
# Type in all cases: in vivo
# [1] = test system: Polygonum convolvulus (wild buckwheat); assay: Greenhouse postemergence herbicidal effect, wild buckwheat (POLCO); settings: 20-22 d
# Description: (§1) Greenhouse Trial Methodology—Evaluation of Postemergence Herbicidal Effect
# (§2) Seeds of the desired test plant species were planted in a 90:10% v/v (volume/volume) mixture of PRO-MIX® BX (Premier Tech Horticulture, Quakertown, Pa., USA) and PROFILE® GREENS GRADE™ (Profile Products LLC, Buffalo Grove, Ill., USA) planting mixture, which typically has a pH of 5.2 to 6.2 and an organic matter content of at least 50 percent, in plastic pots with a surface area of 103.2 square centimeters (cm^2). In some aspects, to ensure good germination and healthy plants, a fungicide treatment and/or other chemical or physical treatment was applied. The plants were grown for 7-36 days (d) in a greenhouse with an approximate 14-hour (h) photo-period which was maintained at about 23° C. during the day and 22° C. during the night. Nutrients and water were added on a regular basis and supplemental lighting was provided with overhead metal halide 1000-Watt lamps as necessary. The plants were employed for testing when they reached the second or third true leaf stage.
# (§3) Emulsifiable concentrates of each of each pyridine carboxylate herbicide (Compound A or Compound B) were prepared at 100 grams acid equivalent per liter (g ae/L). The emulsifiable concentrates also included a safener, cloquintocet-mexyl, at 120 grams active ingredient per liter (g ai/L). An aliquot of each emulsifiable concentrate was placed in a 25 mL glass vial and diluted with an aqueous mixture of 1.25% (v/v) ACTIROB® B esterified rapeseed oil (Bayer Crop Science, Research Triangle Park, N.C., USA) or MSO® Concentrate with LECI-TECH® methylated soybean oil (Loveland Products, Loveland, Colo., USA) to obtain concentrated stock solutions at the highest application rate for each herbicide, based upon a 12 milliliter (mL) application volume at a rate of 187 liters per hectare (L/ha). The concentrated stock solutions were further diluted with an aqueous mixture of 1.25% v/v ACTIROB® B or MSO® Concentrate with LECI-TECH® to obtain stock solutions at reduced application rates for each herbicide. Spray solutions of the herbicide combinations (Compound A or Compound B plus glyphosate or glufosinate) were prepared by adding weighed amounts or aliquots of the glyphosate or glufosinate to the stock solutions of Compound A or Compound B to form 12-mL spray solutions in two-way combinations.
# (§4) The spray solutions were applied to the plant material with an overhead Mandel track sprayer equipped with 8002E nozzles calibrated to deliver 187 L/ha over an application area of 0.503 square meters (m^2) at a spray height of 18 inches (43 centimeters (cm)) above the average plant canopy. Control plants were sprayed in the same manner with the solvent blank. All pyridine carboxylate herbicide (component a) application rates are given as “g ae/ha” and all glyphosate or glufosinate (component b) application rates are given as “g ai/ha.”
# (§5) The treated plants and control plants were placed in a greenhouse as described above and watered by sub-irrigation to prevent wash-off of the test compounds. After 20-22 d, the condition of the test plants as compared with that of the control plants was determined visually and scored on a scale of 0 to 100 percent where 0 corresponds to no injury and 100 corresponds to complete kill.
# Kochia scoparia (kochia) = assay: Greenhouse postemergence herbicidal effect, kochia (KCHSC); settings: 20-22 d
# Description: as §1, §2, §3, §4, §5
# [2] = test system: Chenopodium album L. (common lambsquarters); assay: Greenhouse postemergence herbicidal effect, common lambsquarters (CHEAL); settings: 20-22 d
# Description: as §1, §2, §3, §4, §5
# [3] = test system: Cirsium arvense (Canadian thistle); assay: Greenhouse postemergence herbicidal effect, Canadian thistle (CIRAR); settings: 20-22 d
# Description: as §1, §2, §3, §4, §5
# [4] = test system: Brassica napus (spring rape); assay: Greenhouse postemergence herbicidal effect, spring rape (BRSNN); settings: 20-22 d
# Description: as §1, §2, §3, §4, §5
# [5] = test system: Setaria faberi (giant foxtail); assay: Greenhouse postemergence herbicidal effect, giant foxtail (SETFA); settings: 20-22 d
# Description: as §1, §2, §3, §4, §5
# [6] = test system: Abutilon theophrasti (velvetleaf); assay: Greenhouse postemergence herbicidal effect, velvetleaf (ABUTH); settings: Example 4, 20-22 d
# Description: as §1, §2
# Emulsifiable concentrates of each of each pyridine carboxylate herbicide (Compound A or Compound B) were prepared at 100 grams acid equivalent per liter (g ae/L). The emulsifiable concentrates also included a safener, cloquintocet-mexyl, at 120 grams active ingredient per liter (g ai/L). […]
# as §5
# [7] = test system: Viola tricolor (wild pansy); assay: Greenhouse postemergence herbicidal effect, wild pansy (VIOTR); settings: Example 4, 20-22 d
# Description: as §1, §2, §3, §4, §5
# [8] = test system: Brassica napus (winter rape); assay: Greenhouse postemergence herbicidal effect, winter rape (BRSNW); settings: 20-22 d
# Description: as §1, §2, §3, §4, §5
# [9] = test system: Sinapis arvensis (wild mustard); assay: Greenhouse postemergence herbicidal effect, wild mustard (SINAR); settings: 20-22 d
# Description: as §1, §2, §3, §4, §5
# [10] = test system: Salsola kali (Russian thistle); assay: Greenhouse postemergence herbicidal effect, Russian thistle (SASKR); settings: 20-22 d
# Description: as §1, §2, §3, §4, §5
# [11] = test system: Amaranthus retroflexus (pigweed); assay: Greenhouse postemergence herbicidal effect, pigweed (AMARE); settings: 20-22 d
# Description: as §1, §2, §3, §4, §5
# [12] = test system: Matricaria chamomilla (wild chamomile); assay: Greenhouse postemergence herbicidal effect, wild chamomile (MATCH); settings: 20-22 d
# Description: as §1, §2, §3, §4, §5
# [13] = test system: Triticum aestivum (spring wheat); assay: Greenhouse postemergence phytotoxicity on crop, spring wheat (TRZAS); settings: 20-22 d
# Description: as §1, §2, §3, §4, §5
# [14] = test system: Hordeum vulgare (spring barley); assay: Greenhouse postemergence phytotoxicity on crop, spring barley (HORVS); settings: 20-22 d
# Description: as §1, §2, §3, §4, §5
# [15] = Example 3, Compound B 7.5 g ae/ha alone
# [16] = Example 3, Compound B 10 g ae/ha alone
# [17] = Example 4, Compound B 7.5 g ae/ha alone
# [18] = Example 4, Compound B 10 g ae/ha alone
# [19] = Example 1, Glyphosate 210 g ai/ha alone
# [20] = Example 2, Glyphosate 420 g ai/ha alone
# [21] = Example 3, Glyphosate 210 g ai/ha alone
smiles,measurement,setting,value
"C#CCOC(=O)c1nc(-c2ccc3cc[nH]c3c2F)c(F)c(N)c1Cl [Compound B, propargyl 4-amino-3-chloro-5-fluoro-6-(7-fluoro-1H-indol-6-yl)pyridine-2-carboxylate]","% visual injury, Obs",[1]; [15],73%
same,"% visual injury, Obs",[1]; [16],80%
same,"% visual injury, Obs",[1]; [17],73%
same,"% visual injury, Obs",[1]; [18],80%
same,"% visual injury, Obs",Kochia scoparia (kochia); [15],68%
same,"% visual injury, Obs",Kochia scoparia (kochia); [16],80%
same,"% visual injury, Obs",Kochia scoparia (kochia); [17],68%
same,"% visual injury, Obs",Kochia scoparia (kochia); [18],80%
same,"% visual injury, Obs",[2]; [15],85%
same,"% visual injury, Obs",[2]; [16],90%
same,"% visual injury, Obs",[2]; [17],85%
same,"% visual injury, Obs",[2]; [18],90%
same,"% visual injury, Obs",[3]; [15],45%
same,"% visual injury, Obs",[3]; [16],45%
same,"% visual injury, Obs",[3]; [17],45%
same,"% visual injury, Obs",[3]; [18],45%
same,"% visual injury, Obs",[4]; [15],68%
same,"% visual injury, Obs",[4]; [16],85%
same,"% visual injury, Obs",[4]; [17],68%
same,"% visual injury, Obs",[4]; [18],85%
same,"% visual injury, Obs",[5]; [15],70%
same,"% visual injury, Obs",[5]; [16],55%
same,"% visual injury, Obs",[5]; [17],70%
same,"% visual injury, Obs",[5]; [18],55%
same,"% visual injury, Obs",[6]; Compound B 7.5 g ae/ha alone,68%
same,"% visual injury, Obs",[6]; Compound B 10 g ae/ha alone,68%
same,"% visual injury, Obs",[7]; Compound B 7.5 g ae/ha alone,10%
same,"% visual injury, Obs",[7]; Compound B 10 g ae/ha alone,40%
"O=C(O)CNCP(=O)(O)O [Glyphosate, N-(phosphonomethyl)glycine]",% visual injury,[8]; [19],68%
same,"% visual injury, Obs",[8]; [20],35%
same,% visual injury,[1]; [19],65%
same,"% visual injury, Obs",[1]; [20],38%
same,"% visual injury, Obs",[1]; [21],20%
same,% visual injury,[9]; [19],50%
same,"% visual injury, Obs",[9]; [20],30%
same,% visual injury,[10]; [19],10%
same,"% visual injury, Obs",[10]; [20],53%
same,% visual injury,Kochia scoparia (kochia); [19],0%
same,"% visual injury, Obs",Kochia scoparia (kochia); [20],38%
same,"% visual injury, Obs",Kochia scoparia (kochia); [21],3%
same,% visual injury,[2]; [19],53%
same,"% visual injury, Obs",[2]; [20],75%
same,"% visual injury, Obs",[2]; [21],8%
same,% visual injury,[11]; [19],100%
same,"% visual injury, Obs",[11]; [20],100%
same,% visual injury,[12]; [19],60%
same,"% visual injury, Obs",[12]; [20],75%
same,% visual injury,[3]; [19],38%
same,"% visual injury, Obs",[3]; [20],83%
same,"% visual injury, Obs",[3]; [21],40%
same,% visual injury,[13]; [19],90%
same,"% visual injury, Obs",[13]; [20],90%
same,% visual injury,[14]; [19],83%
same,"% visual injury, Obs",[14]; [20],80%
same,"% visual injury, Obs",[4]; [21],0%
same,"% visual injury, Obs",[5]; [21],30%
